According to patent US20240352069A1, “SYNTHETIC PEPTIDE, AND COSMETIC COMPOSITION OR PHARMACEUTICAL COMPOSITION AND APPLICATION THEREOF” (SHENZHEN WINKEY TECHNOLOGY CO., LTD., priority 2021, published 2024):

Legend:
Format in all cases: cell-based, mouse
IL-8 = assay: Anti-inflammatory repair experiment, LPS-stimulated RAW264.7 cells, ELISA IL-8; conditions: 100 ppm, 200 ng/mL LPS, 48 h, vs LPS group
Excerpt: (§1) Mouse mononuclear macrophages (RAW264.7 cells).
(§2) Peptide (2), tested at a concentration of 100 ppm.
(§3) • a) Take RAW264.7 cells in good exponential growth phase, add 0.25% trypsin digestion solution, digest to make adherent cells fall off, count 1-4×10^6 cells/mL, and make cell suspension; • b) Appropriately dilute 100,000 cells/well of cell suspension and inoculate it on a 6-well plate, and establish an LPS-stimulated inflammation model when the cells reached about 80% confluent. Set blank control group (control), LPS group, dexamethasone group (DXM), polypeptide group. Add 1000 μL culture medium to the blank control group; add 200 ng/mL LPS to the LPS group, add culture medium to 1000 μL; add 200 ng/mL LPS and 50 ng/mL dexamethasone to the dexamethasone group, add culture medium to 1000 μL; add 200 ng/mL LPS and peptide (2) to the polypeptide group, add culture medium to 1000 μL (final test concentration of peptide is 100 ppm). […] The OD value of each well was sequentially measured at 450 nm with a microplate reader within 15 min after the reaction was terminated. […]

TNF-α = assay: Anti-inflammatory repair experiment, LPS-stimulated RAW264.7 cells, ELISA TNF-α
Excerpt: as §1, §2, §3

IL-6 = assay: Anti-inflammatory repair experiment, LPS-stimulated RAW264.7 cells, ELISA IL-6; conditions: 100 ppm, 200 ng/mL LPS, 48 h, vs LPS group
Excerpt: as §1, §2, §3

In the case of “H-Ala-Pro-Phe-Arg-Met-Gly-Ile-Met-Thr-Thr-Asn-OH (H-APFRMGIMTTN-OH) [Peptide (2)]”, the “expression of IL-8” value (IL-8) is reported as “significantly down-regulated”, the “anti-inflammatory effect compared with dexamethasone” value (TNF-α; 100 ppm vs 50 ng/mL dexamethasone, TNF-α, IL-6 and IL-8) is reported as “equivalent to the positive drug dexamethasone” and the “expression of TNF-α” value (TNF-α; 100 ppm, 200 ng/mL LPS, 48 h, vs LPS group) is reported as “significantly down-regulated”. The “expression of IL-6” value (IL-6) was “significantly down-regulated”.
